Experimental findings from patent US7049331B2, “1,2,4-thiadiazole derivatives as melanocortin receptor modulators” (Ortho-McNeil Pharmaceutical, Inc., priority 2001, dated 2006) are described below.

Test [1] has as its target T1, melanocortin MC-4 receptor (Homo sapiens, UniProt P32245).
T1 construct: purchased Receptor Biology Inc
Kind of test: MC-4 receptor binding (Filtration). Conditions: cell prints its own unit nm in the Filtration (μM) column; read-out: IC50 MC-4 (Filtration). The protocol: The procedures described above for the melanocortin MC-4 receptor were repeated for the melanocortin MC-3 receptor. Following the procedures described, representative compounds of the present invention were tested for binding in the MC-4 and/or MC-3 assay, as listed in Table 4.

In test [2] the test system is human skin transplanted to the SCID mouse. Kind of test: Sebum production: Human Skin-SCID Mouse Chimera Model. The test is classed as in vivo. Conditions: for % Inh Squalene (Human Sebaceous Lipids) / % Inh Triglycerides (Human Sebaceous Lipids) / % Inh W/E (Human Sebaceous Lipids): 11 Day Treatment; for % Inh Cholesterol Ester, Lipid Accumulation / % Inh Cholesterol, Lipid Accumulation / % Inh Cholesterol, Sebaceous Lipid Synthesis / % Inh Squaline, Lipid Accumulation / % Inh Squaline, Sebaceous Lipid Synthesis / % Inh Triglycerides, Lipid Accumulation / % Inh Triglycerides, Sebaceous Lipid Synthesis / % Inh Wax Esters, Lipid Accumulation / % Inh Wax Esters, Sebaceous Lipid Synthesis: 30 Day Treatment. The text has this:
C.B-17 scid/scid mice (Taconic, Germantown, N.Y.) were used for grafting at 5–6 weeks of age. Full thickness human facial skin was shaved to ˜0.4 mm using a Forman Dermatome. The skin shavings were washed 3 times in antibiotics and antimycotics (penicillin, streptomycin, fungizone) (Life technologies) in Dulbecco's Modified Eagle Medium (DMEM, Life Technologies). Eliptical skin ˜2.0–2.5×1.0–1.5 was grafted onto the prepared graft bed and sutured using 4.0 silk. During surgical procedures the mice were anaesthetized using a mixture of Ketaset (0.16 mg/g body weight) and Rompun (8.0 μg/g body weight).
It is well accepted that the wound healing process of the transplanted skin in the SCID mouse takes one month, at which time the human skin can be used for experimental purposes. […] Maximum size of the glands was observed 3 month post transplantation. The glands retained their capability to produce human specific sebum and the glandular tissue expressed human specific markers including MC5-R. Since glands reached their maximum size at 2–3 month post transplantation the effects of inhibitors of sebum secretion was tested at this point.
Mice at 2–3 month post transplantation with human facial skin were used for the studies. The graft area was treated with the test compound at the desired concentration(s) dissolved in polyethylene glycol-ethanol (20 μl/2 cm^2). Controls were treated with vehicle alone. The test compounds were applied daily, excluding weekends. Sebum secretion was determined using Sebutape at 15 days and 30 days following treatment.
The termination of the experiment was determined by preliminary clinical evaluation of sebum production using SEBUTAPE. At this time human skin grafts were excised and representative samples were collected for histological evaluation. More particularly, 2 mm punch biopsies were prepared and used for evaluation of lipid synthesis and total lipid accumulation in the treated tissues.
The collected—2 mm punch biopsies were placed individually into 96 well plates in Krebs buffer and labeled with 10 μCi of ^14C acetate for 3 hours. Following this labeling period the samples were washed in medium and 5 biopsies pooled, weighed, and used for lipid extraction. The lipid extraction and analysis by HPTLC was the same as described for tissue culture derived cells. […]

The mark [3] stands for this setting: 30 days of topical treatment with 0.05% and 0.01% solution.

T1 sequence (P32245 whole entry): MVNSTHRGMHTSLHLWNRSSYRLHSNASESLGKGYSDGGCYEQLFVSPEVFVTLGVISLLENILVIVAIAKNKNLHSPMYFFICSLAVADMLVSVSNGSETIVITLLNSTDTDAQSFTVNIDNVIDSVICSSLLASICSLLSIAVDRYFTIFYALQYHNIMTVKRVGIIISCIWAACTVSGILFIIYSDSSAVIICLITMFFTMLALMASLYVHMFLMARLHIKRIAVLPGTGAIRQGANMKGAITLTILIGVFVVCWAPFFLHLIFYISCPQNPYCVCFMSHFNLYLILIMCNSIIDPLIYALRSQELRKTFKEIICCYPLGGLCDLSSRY

`c1ccc(CNc2nc(-c3ccccc3)[n+](-c3ccccc3)s2)cc1` [Compound 84]: the IC50 in test [1] was 0.082 µM.

In the case of `COc1ccccc1-c1nc(Nc2ccccc2)s[n+]1-c1ccccc1OC.[Br-]` [Compound 74, 2-(2-methoxyphenyl)-3-(2-methoxyphenyl)-5-phenylamino-[1,2.4]thiadiazol-2-ium], in test [2] (0.01% topical), the “% Inh Squalene (Human Sebaceous Lipids)” value is given as 0%; the “% Inh Triglycerides (Human Sebaceous Lipids)” value worked out at 0%; the “% Inh W/E (Human Sebaceous Lipids)” value came out at 25%; the “% Inh Cholesterol Ester, Lipid Accumulation” value is given as 44%. Further, in test [2] (0.01% topical), the “% Inh Cholesterol, Lipid Accumulation” value stood at 33%; the “% Inh Cholesterol, Sebaceous Lipid Synthesis” value came to 33%; the “% Inh Squaline, Lipid Accumulation” value was found to be 82%; the “% Inh Squaline, Sebaceous Lipid Synthesis” value stood at 80%. In test [2] (0.01% topical), the “% Inh Triglycerides, Lipid Accumulation” value is given as 75%; the “% Inh Triglycerides, Sebaceous Lipid Synthesis” value came out at 75%; the “% Inh Wax Esters, Lipid Accumulation” value was 86%; the “% Inh Wax Esters, Sebaceous Lipid Synthesis” value is listed as 86%. For the same molecule, in test [2] (0.05% topical), the “% Inh Cholesterol Ester, Lipid Accumulation” value was 21%; the “% Inh Cholesterol, Lipid Accumulation” value is 82%; the “% Inh Cholesterol, Sebaceous Lipid Synthesis” value is recorded as 82%; the “% Inh Squaline, Lipid Accumulation” value stood at 73%. In test [2] (0.05% topical), the “% Inh Squaline, Sebaceous Lipid Synthesis” value came out at 90%; the “% Inh Triglycerides, Lipid Accumulation” value was 90%; the “% Inh Triglycerides, Sebaceous Lipid Synthesis” value is 90%; the “% Inh Wax Esters, Lipid Accumulation” value is given as 93%. Besides, in test [2] (0.05% topical), the “% Inh Wax Esters, Sebaceous Lipid Synthesis” value was found to be 93%. In addition, in test [2] (0.1% topical), the “% Inh Squalene (Human Sebaceous Lipids)” value is on record as 70%, the “% Inh Triglycerides (Human Sebaceous Lipids)” value worked out at 50% and the “% Inh W/E (Human Sebaceous Lipids)” value was 80%. Besides, in test [2] (0.5% topical), the “% Inh Squalene (Human Sebaceous Lipids)” value turned out to be 0%, the “% Inh Triglycerides (Human Sebaceous Lipids)” value is 0% and the “% Inh W/E (Human Sebaceous Lipids)” value turned out to be 10%. In test [2] (setting [3]), the “de novo synthesis of sebaceous lipids” value is “significantly decreased” and the “total sebaceous lipid accumulation” value was “significantly decreased”. In addition, the “down regulation of sebaceous lipids” value in test [2] (topical treatment for 15 days with 0.05% and 0.005% solutions) is reported as “not sufficient to down regulate the lipids”. Further, the “Visual evaluation of the sebaceous gland” value in test [2] (topical treatment with 0.1% solution) was “visible shrinkage of the sebaceous gland and down regulation of sebaceous lipids”.
